The conditions of data set [1]: albino rats; cited from earlier work.
For data set [2], the system named is SH-SY5Y-hTau441(V337M/R406W) cells. The experiment in a line: Tau phosphorylation assay (Phospho(Thr231)/Total Tau). The class given is cell-based, human. The settings on record: 25 μM HCQ.
Description: Tau Phosphorylation: SH-SY5Y-hTau441(V337M/R406W) cells were maintained in culture medium (DMEM medium, 10% FCS, 1% NEAA, 1% L-Glutamine, 100 g/mL Gentamycin, 300 μg/mL Geneticin G-418) and differentiated with 10 μM retinoic acid (RA) for 5 days changing medium every 2 to 3 days. Prior to the treatment, cells were seeded onto 24-well plates at a cell density of 2×10^5 cells per well (DIV1). Drug compounds were applied on DIV2. After 24 h of incubation (DIV3), cells on 24-well plates were harvested in 60 μL RIPA-Buffer [50 mM Tris pH 7.4, 1% Nonidet P40, 0.25% Na-deoxy-cholate, 150 mM NaCl, 1 mM EDTA supplemented with freshly added 1 μM NaF, 0.2 mM Na-ortho-vanadate, 80 μM Glycerophosphate, protease (Calbiochem) and phosphatase (Sigma) inhibitor cocktail]. Protein concentration was determined by BCA assay (Pierce, ThermoFisher) and samples were adjusted to a uniform total protein concentration. Total Tau and phosphorylated Tau were determined by immunosorbent assay from Mesoscale Discovery (Phospho(Thr231)/Total Tau Kit K15121D, Mesoscale Discovery).
Tau phosphorylation: SH-SY5Y-hTau441(V337M/R406W) cells were maintained in culture medium (DMEM medium, 10% FCS, 1% NEAA, 1% L-Glutamine, 100 μg/mL Gentamycin, 300 μg/mL Geneticin G-418) and differentiated with 10 μM retinoic acid (RA) for 5 days changing medium every 2 to 3 days. Prior to the treatment, cells were seeded onto 24-well plates at a cell density of 2×10^5 cells per well (DIV1). HCQ (25 μM) was applied on DIV2. After 24 h of incubation (DIV3), cells on 24-well plates were harvested in 60 μL RIPA-Buffer [50 mM Tris pH 7.4, 1% Nonidet P40, 0.25% Na-deoxy-cholate, 150 mM NaCl, 1 mM EDTA supplemented with freshly added 1 μM NaF, 0.2 mM Na-ortho-vanadate, 80 μM Glycerophosphate, protease (Calbiochem) and phosphatase (Sigma) inhibitor cocktail]. Protein concentration was determined by BCA assay (Pierce, ThermoFisher) and samples were adjusted to a uniform total protein concentration. Total Tau and phosphorylated Tau were determined by immunosorbent assay from Mesoscale Discovery (Phospho(Thr231)/Total Tau Kit K15121D, Mesoscale Discovery).
Tau Phosphorylation: SH-SY5Y-hTau441(V337M/R406W) cells were maintained in culture medium [DMEM medium, 10% FCS, 1% nonessential amino acids (NEAA), 1% l-glutamine, gentamycin (100 μg/ml), and geneticin G-418 (300 μg/ml)] and differentiated with 10 μM retinoic acid for 5 days changing medium every 2 to 3 days. […] Protein concentration was determined by BCA assay (Pierce, Thermo Fisher Scientific, Waltham, MA), and samples were adjusted to a uniform total protein concentration. Total tau and phosphorylated tau were determined by immunosorbent assay from Mesoscale Discovery [Phospho(Thr231)/Total Tau Kit K15121D, Mesoscale Discovery, Meso Scale Diagnostics]. […]
The conditions of data set [3]: in vivo; cited from earlier work.
In data set [4] the test system is microglia isolated from 5xFAD mice. The experiment in a line: LPS-induced neuroinflammation on MACS isolated 5xFAD microglia. Type of data set: cell-based, mouse. On the procedure: MACS microglia isolation and cultivation: Adult microglia were isolated from 9 months old 5xFAD mice via magnetic cell sorting (MACS). The mice were terminally anesthetized by i.p. injection of Pentobarbital (600 mg/kg, dosing 10 μL/g body weight) and brains were transcardially perfused with DPBS. Brains were removed, the brainstem discarded and the remaining brain minced for cell dissociation. Cell dissociation was performed using Miltenyi Adult Brain Dissociation Kit (Miltenyi, 130-107-677). MACS cell separation was performed using CD11b (Microglia) MicroBeads, mouse (Miltenyi, 130-093-634) and MS columns on OctoMACS™ cell separator (Miltenyi). Isolated microglia were seeded onto 0.01% PLL coated plates at a density of 10.000 cells per well in 384 well plate in DMEM containing 10% FBS,1% penicillin/streptomycin, and 2 mM L-glutamine.
LPS-induced neuroinflammation on MACS isolated 5xFAD microglia: On DIV7 HCQ at 0.25 μM, 2.5 μM and 25 μM was applied 1 hour before LPS stimulation (Sigma-Aldrich; L6529; 1 mg/ml stock in ddH2O, final concentration in well: 50 ng/ml (dilutions in medium)). Cells treated with vehicle, cells treated with LPS alone, as well as cells treated with LPS plus reference item (dexamethasone 10 μM, Sigma D4902) served as controls. After 24 h of stimulation, cell supernatants were collected for the cytokine measurement (V-PLEX Proinflammatory Panel 1 Mouse Kit, K15048D, Mesoscale).

The target of another data set is STAT3 (Mus musculus, UniProt P42227). The data set is described as follows: Western blot of total and phosphorylated STAT3 in mouse embryonic cortical neurons. Type of data set: cell-based. On the set-up: hippocampal homogenate samples across four groups; from tissue; host or cells: acute hippocampal slices from WT and APP/PS1 (APPSwe/PS1dE9) mice. The note with it: 50 μM, 48 hours. On the procedure: For primary cultures of embryonic cortical neurons, timed-pregnant mice were obtained from The Jackson Laboratory. Cultures were prepared from embryonic day (E) 14.5 cerebral tissues as described (Zhao et al., Cell Death Differ 2019, 26:1600-1614). Pregnant mice were killed by fast cervical dislocation, embryos and embryo brains were removed, and the cerebral hemisphere was extracted in sterile Hank's balanced saline solution (HBSS). Brain tissues were incubated in 0.25% trypsin-EDTA for 30 min at 37° C.and then transferred to DMEM containing 10% fetal bovine serum (DMEM+). The tissues were transferred to neurobasal (NB) medium containing B27 supplements, 2 mM L-glutamine, antibiotics and antimycotics (Gibco), and 1 mM HEPES and dissociated by trituration using a fire-polished Pasteur pipet. The dissociated cells were seeded into polyethyleneimine-coated plastic culture dishes at a density of 60,000 cells/cm^2 and cultured in the same B27-containing NB medium. Experiments were started 5 days later.
Sequence of STAT3 (P42227 whole entry): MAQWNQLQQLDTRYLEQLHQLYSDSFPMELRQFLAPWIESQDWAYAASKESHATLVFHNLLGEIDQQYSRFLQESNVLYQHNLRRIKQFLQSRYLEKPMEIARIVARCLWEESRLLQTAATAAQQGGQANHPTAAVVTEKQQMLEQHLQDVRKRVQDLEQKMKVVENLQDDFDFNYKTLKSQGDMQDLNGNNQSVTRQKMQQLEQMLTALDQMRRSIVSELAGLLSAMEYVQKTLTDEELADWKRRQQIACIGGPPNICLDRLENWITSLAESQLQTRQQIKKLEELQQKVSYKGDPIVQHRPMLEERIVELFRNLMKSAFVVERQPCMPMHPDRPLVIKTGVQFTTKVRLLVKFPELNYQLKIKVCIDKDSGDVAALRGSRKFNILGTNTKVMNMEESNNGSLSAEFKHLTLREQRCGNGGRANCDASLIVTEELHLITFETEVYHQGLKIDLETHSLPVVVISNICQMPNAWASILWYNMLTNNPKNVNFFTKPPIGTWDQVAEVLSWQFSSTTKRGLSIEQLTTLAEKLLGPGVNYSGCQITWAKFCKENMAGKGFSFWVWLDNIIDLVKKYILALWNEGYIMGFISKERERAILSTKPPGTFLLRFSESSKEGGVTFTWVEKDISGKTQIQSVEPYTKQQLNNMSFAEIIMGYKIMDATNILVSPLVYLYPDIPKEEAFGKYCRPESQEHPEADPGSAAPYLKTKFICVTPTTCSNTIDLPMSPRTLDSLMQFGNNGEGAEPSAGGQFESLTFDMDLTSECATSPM
HCQ treatment: Treatment with hydroxychloroquine Sulfate (Selleckchem, Catalog No.S4430) was performed at 50 μM concentration. […]
Statistical analysis: Digitized images were obtained, processed, and quantified with ImageLab version 6.1 (BioRad Laboratories).
In general terms: Immunoblotting shows a protein as a band on a membrane.

The next data set deals with iPSCs. The data set is described as follows: LPS induced neuroinflammation (iPSCs). Type of data set: cell-based. The note with it: posterior probability of a protective effect. On the procedure:
Cell-based assays: For each combination of drugs and assay, the posterior probability P(Hi|data) of protective, neutral, and adverse drug effect (formal hypotheses H1, H0, H2, respectively) were evaluated. Dose-response relationships (x-y data) were modeled with a Bayesian nonlinear regression model:
and Bayesian estimation of the posterior density of the fold change was performed using default settings of the Markov chain Monte Carlo samples implemented by the PyMC python library. For efficient sample, each bioactivity data set was standardized such that […] corresponded to one standard deviation. Diagnostic criteria (posterior sample of fitted curves, effective sample sizes, values of the r statistic, and Markov chain standard errors) were inspected for the fit and three poorly fitted data sets out of a total of 91 data sets were excluded.

Structures are written as SMILES.

On to `CCN(CCO)CCCC(C)Nc1ccnc2cc(Cl)ccc12` (centres unmarked) [HCQ, hydroxychloroquine], for which the Kp brain/plasma in data set [1] is 4-31. Besides, in data set [2], the “phosphorylated tau (ptau231)” value is on record as “reduced” and the total tau entry was “reduced”. Besides, in data set [3], the “serious side effects of retinopathy and cardiac toxicity” value was “relatively rare”. Further, in data set [4], the “release of IL1-b” value is recorded as “lowered”, the “release of IL-10” value is on record as “lowered” and the “release of IL-12p70” value is “lowered”. The “release of IL6” value in data set [4] (HCQ 0.25-25 μM) is “lowered”. In addition, at STAT3, the “p-STAT3 (Tyr705 and Ser727)” value is recorded as “reduced”; the “total STAT3” value is given as “without alteration”.
In the case of `C[C@H](CCC(=O)NCCS(=O)(=O)O)[C@H]1CC[C@H]2[C@@H]3[C@@H](O)C[C@@H]4C[C@H](O)CC[C@]4(C)[C@H]3CC[C@]12C` [TUDCA, tauroursodeoxycholic acid], in the data set with iPSCs, the “effect in LPS induced neuroinflammation (iPSCs)” value was “strongly protective”.

The values are drawn from patent US20240269128A1, “COMPOUNDS FOR TREATING OR PREVENTING ALZHEIMER'S DISEASE” (THE UNITED STATES OF AMERICA, as represented by the …, priority 2021, published 2024).
